Here are results for 14 molecules from PubChem BioAssay (NCI).

Values joined by “and” are separate entries in the source; they are usually repeats but may differ in a detail not shown here. Equal entries are not always repeated.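 Cells were grown in 96-well plates and exposed to each compound for 48 hours at five concentrations; endpoints were interpolated linearly between bracketing concentrations, or set to the highest concentration if not reached. GI50 = concentration required for 50% inhibition of growth. TGI: concentration producing complete growth inhibition.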

Among the test systems are SF-295 CNS; SK-MEL-28 melanoma; PC-3 prostate; NCI-H226 lung; SNB-19 CNS; M14 melanoma; SN12C renal; RPMI-8226 leukemia; RXF 393 renal; SR leukemia.
Holding throughout (assay): NCI tumour cell line growth inhibition, 48 h

Take `Cc1cc2c(cc1Cl)Sc1n[nH]c(=O)n1S2(=O)=O`: the TGI in the experiment on SF-295 CNS, in the experiment with SK-MEL-28 melanoma, in the experiment on PC-3 prostate, in the experiment with NCI-H226 lung, in the experiment on SNB-19 CNS and with M14 melanoma was > 100 µM in each case. The TGI in the experiment on SN12C renal was > 100 µM.

As for `CC(=O)N1c2cc(N=NN(C)C)ccc2NC(=O)CC1C` (stereo not given), the TGI in the experiment on RPMI-8226 leukemia, with SF-295 CNS, with SK-MEL-28 melanoma, with PC-3 prostate, in the experiment with NCI-H226 lung and in the experiment on RXF 393 renal was > 100 µM each time. For the same molecule, the TGI in the experiment with SNB-19 CNS, in the experiment on M14 melanoma and in the experiment with SN12C renal was > 100 µM each time.

In the case of `CN(C)C(=O)Oc1ccc(C(=S)Nc2ccccc2)cc1`, the TGI in the experiment on RPMI-8226 leukemia, with SF-295 CNS, in the experiment on SK-MEL-28 melanoma, in the experiment on PC-3 prostate, in the experiment on SNB-19 CNS and with M14 melanoma was > 100 µM in each case. The TGI in the experiment with SR leukemia is > 100 µM.

With `C=CCN1C(=O)CC(=O)N(NC2=NNC3(C(=O)N2)c2ccccc2-c2ccccc23)C1=S`, the TGI in the experiment with SF-295 CNS is > 100 µM; in the experiment with SK-MEL-28 melanoma, > 100 µM; with PC-3 prostate, > 100 µM; in the experiment with NCI-H226 lung, 82.5 µM; in the experiment with RXF 393 renal, > 100 µM; in the experiment on SNB-19 CNS it was > 100 µM. In addition, the TGI with M14 melanoma was > 100 µM; in the experiment on SR leukemia it was 61.1 µM; in the experiment with SN12C renal, > 100 µM.

Turning to `O=C(O)/C=C/c1ccncc1`, the TGI in the experiment with RPMI-8226 leukemia, with SF-295 CNS, in the experiment with SK-MEL-28 melanoma, in the experiment on NCI-H226 lung, in the experiment with RXF 393 renal and in the experiment on SNB-19 CNS was > 100 µM each time. In addition, the TGI in the experiment on M14 melanoma, in the experiment on SR leukemia and in the experiment with SN12C renal was > 100 µM throughout.

Regarding `CC(=O)C(C(C)=O)[C@H]1OC(C)(C)O[C@H]1[C@H]1COC(C)(C)O1`, the TGI in the experiment on SF-295 CNS was > 100 µM; in the experiment on SK-MEL-28 melanoma, > 100 µM; in the experiment with PC-3 prostate it was 68.9 µM; in the experiment with RXF 393 renal, > 100 µM; in the experiment with SNB-19 CNS it was > 100 µM; in the experiment on M14 melanoma, > 100 µM. Besides, the TGI in the experiment on SN12C renal is > 100 µM.

`Cc1cc(C)n2c(nc3ccccc32)c1C#N`: the TGI with SF-295 CNS, in the experiment on SK-MEL-28 melanoma, in the experiment on PC-3 prostate, with NCI-H226 lung, with RXF 393 renal and in the experiment with SNB-19 CNS was > 100 µM throughout. Besides, the TGI with M14 melanoma and with SN12C renal was > 100 µM in each case.

For `CC[C@]1(Cc2ccc(OC)c(OC)c2)C=[N+]([O-])O[C@H](OC2CCCC2(c2ccccc2)c2ccccc2)[C@@H]1OC(=O)C(C)(C)C` (stereo not given in full), the TGI amounted to 14.8 µM with SF-295 CNS; 4.22 µM in the experiment on SK-MEL-28 melanoma; 14.8 µM in the experiment with PC-3 prostate; 12.5 µM with NCI-H226 lung; 3.53 µM in the experiment with RXF 393 renal; 30.3 µM in the experiment with SNB-19 CNS. In addition, the values for the TGI with M14 melanoma, with SR leukemia and in the experiment with SN12C renal were > 40.8 µM, > 100 µM and > 22.1 µM, respectively.

As to `CCOC(=O)c1cn(CC)c2ccc3c(c2c1=O)S(=O)(=O)C=C3`, the TGI in the experiment with RPMI-8226 leukemia, in the experiment on SF-295 CNS, with SK-MEL-28 melanoma, in the experiment with PC-3 prostate, in the experiment on NCI-H226 lung and with RXF 393 renal was > 100 µM in each case. Moreover, the TGI in the experiment with SNB-19 CNS, in the experiment with M14 melanoma and in the experiment with SN12C renal was > 100 µM throughout.

With `c1cc2c(cc1[C@@H]1OC[C@@H]3[C@H]1CO[C@H]3c1ccc3c(c1)OCO3)OCO2`, the TGI in the experiment on RPMI-8226 leukemia was > 100 µM; with SF-295 CNS, > 100 µM; in the experiment on SK-MEL-28 melanoma, > 100 µM; in the experiment on PC-3 prostate, > 100 µM; in the experiment on NCI-H226 lung it was > 100 µM; with RXF 393 renal it was 89.3 µM. For the same molecule, the TGI with SNB-19 CNS, in the experiment with M14 melanoma and in the experiment with SN12C renal was > 100 µM each time.

`CC[C@@]1(O)C(=O)OCc2c1cc1n(c2=O)Cc2c-1nc1ccccc1c2C=Nc1ccccc1N[C@@H]1c2cc3c(cc2[C@@H](c2cc(OC)c(O)c(OC)c2)[C@H]2C(=O)OC[C@@H]21)OCO3`: the TGI in the experiment with RPMI-8226 leukemia was > 50 µM; with SF-295 CNS, > 50 µM; with SK-MEL-28 melanoma, 35 µM and > 50 µM; in the experiment on PC-3 prostate it was > 65.8 µM; in the experiment with NCI-H226 lung, 3.05 µM; in the experiment on RXF 393 renal, 5.02 µM and 0.54 µM. For the same molecule, the TGI with SNB-19 CNS is > 52.5 µM; with M14 melanoma, 6.02 µM and 1.03 µM; with SN12C renal, > 100 µM and 24.6 µM. In addition, the GI50 is 0.149 µM and 0.134 µM in the experiment on SF-295 CNS; 11.4 µM and 1.17 µM with SK-MEL-28 melanoma; 0.317 µM and 0.0619 µM with RXF 393 renal; 0.0869 µM and 0.0336 µM in the experiment with SNB-19 CNS; 0.0322 µM with M14 melanoma; 0.0632 µM and 0.0234 µM in the experiment with SN12C renal.

For the molecule `Cc1ncc(CSC(=N)N)n1Cc1ccccc1`, the TGI was 83.2 µM in the experiment with RPMI-8226 leukemia; > 100 µM in the experiment with SF-295 CNS; > 100 µM in the experiment with SK-MEL-28 melanoma; > 100 µM in the experiment on PC-3 prostate; > 100 µM with NCI-H226 lung; > 100 µM with RXF 393 renal. For the same molecule, the TGI in the experiment with SNB-19 CNS, in the experiment with M14 melanoma and in the experiment on SN12C renal was > 100 µM in each case.

With `Cn1c(=O)c2c(nc(N/N=C3/SCC(=O)N3Cc3ccccc3)n2C)n(C)c1=O`, the TGI in the experiment with RPMI-8226 leukemia is 66.3 µM; in the experiment on SF-295 CNS it was > 100 µM; with SK-MEL-28 melanoma, > 100 µM; with PC-3 prostate it was > 100 µM; in the experiment on NCI-H226 lung, > 100 µM; in the experiment with RXF 393 renal, > 100 µM. Moreover, the TGI in the experiment on SNB-19 CNS, with M14 melanoma and in the experiment on SN12C renal was > 100 µM throughout.

For `C(=C\c1c2oc(-c3ccccc3)cc(-c3ccccc3)c-2c2ccccc12)/C=C1\c2ccccc2-c2c(-c3ccccc3)cc(-c3ccccc3)[o+]c21`, the TGI in the experiment with RPMI-8226 leukemia, with SF-295 CNS, with SK-MEL-28 melanoma, with NCI-H226 lung, in the experiment with RXF 393 renal and with SNB-19 CNS was > 100 µM each time. Besides, the TGI in the experiment on M14 melanoma, in the experiment with SR leukemia and in the experiment with SN12C renal was > 100 µM throughout.
